The source of these data is PubChem BioAssay AID1033 (Sanford-Burnham Center for Chemical Genomics, 2008).

Molecules are shown by their SMILES. Active and inactive are the calls of the source. No rule for the calls is given here.

In this assay the target is Chaperone protein DnaK (Escherichia coli (strain K12)) (UniProt P0A6Y8). Kind of assay: E. coli DnaK SBD ligand binding – biophysical, NMR, chaperone (AID 1033). As to conditions: Purified DnaK SBD.
Chain of Chaperone protein DnaK (Escherichia coli (strain K12)) (P0A6Y8 whole entry, looked up): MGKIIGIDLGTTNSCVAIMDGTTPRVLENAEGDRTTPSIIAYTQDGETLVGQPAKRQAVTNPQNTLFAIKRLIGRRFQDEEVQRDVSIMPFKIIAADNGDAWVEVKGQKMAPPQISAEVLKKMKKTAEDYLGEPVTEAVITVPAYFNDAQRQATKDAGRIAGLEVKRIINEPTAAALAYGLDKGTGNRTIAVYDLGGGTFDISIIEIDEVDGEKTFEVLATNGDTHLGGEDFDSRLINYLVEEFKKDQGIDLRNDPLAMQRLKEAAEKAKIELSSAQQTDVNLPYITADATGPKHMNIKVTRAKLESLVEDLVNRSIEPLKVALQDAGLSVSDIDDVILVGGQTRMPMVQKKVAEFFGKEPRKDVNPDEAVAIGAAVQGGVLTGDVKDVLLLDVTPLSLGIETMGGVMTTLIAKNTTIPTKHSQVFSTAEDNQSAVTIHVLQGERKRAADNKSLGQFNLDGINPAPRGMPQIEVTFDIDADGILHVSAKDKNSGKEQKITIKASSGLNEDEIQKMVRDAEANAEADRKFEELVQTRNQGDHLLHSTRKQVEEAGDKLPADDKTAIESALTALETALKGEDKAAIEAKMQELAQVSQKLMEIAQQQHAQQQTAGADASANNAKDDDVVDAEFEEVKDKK
With `COc1cc2c(cc1OC)C1(O)C(=O)c3ccc(O)c(C(=O)O)c3OC1CO2` (stereo not drawn), the Kd is > 4 mM (inactive).

Regarding `c1ccc(-c2noc(-c3ccc4c(c3)OCO4)n2)nc1`, the Kd is > 4 mM (inactive). Regarding `CN(C)S(=O)(=O)c1ccc(N2CCOCC2)nc1`, the Kd was > 4 mM (inactive). `O=C(O)CSc1nc2ccccc2c(=O)[nH]1`: the Kd is > 4 mM (inactive).

As to `Oc1ccc(C2SCCS2)cc1`, the Kd is > 4 mM (inactive). On to `COc1ccc(Cc2nnc3c4cnn(C)c4ncn23)cc1`, for which the Kd was > 4 mM (inactive). `COc1ccc(S(=O)(=O)Nc2ccccn2)c(C)c1C`: the Kd is > 4 mM (inactive). With `Cc1noc(C)c1C(=O)Nc1sc(C)c(C)c1C#N`, the Kd was > 4 mM (inactive).

Consider `Cc1nnc(NCc2ccc3c(c2)OCO3)[nH]c1=O`, for which the Kd is > 4 mM (inactive). In the case of `C=C[C@@]1(C)CC(=O)[C@@]2(O)[C@](C)(O1)[C@@H](OC(C)=O)[C@@H](O)C1C(C)(C)CC[C@H](O)[C@@]12C` (stereo partly drawn), the Kd is > 4 mM (inactive). `CCC(C)C(=O)O[C@H]1[C@H](O)C2C(CN3CC(C)CCC3[C@@]2(C)O)C2C[C@]34O[C@]5(O)C(OC(=O)C(C)(O)CC)CC[C@@]3(C)C5C(OC(C)=O)[C@@H](OC(C)=O)C4[C@@]21O` (stereo partly drawn): the Kd is > 4 mM (inactive). As for `Cc1ccc(OCC(=O)n2cnnc2N)c(C)c1`, the Kd is > 4 mM (inactive). Turning to `Cc1ncc(C[n+]2csc3ccccc32)c(N)n1`, the Kd is > 4 mM (inactive). As for `COC(=O)CC1C(C)(C)C(OC(C)=O)[C@@H]2[C@@H](OC(C)=O)[C@]34O[C@@]2(O)[C@]1(C)C3CC[C@]1(C)C4=CC(=O)O[C@H]1c1ccoc1` (stereo partly drawn), the Kd is > 4 mM (inactive). As for `COc1ccc2[nH]cc(CN(C)C)c2c1`, the Kd is > 4 mM (inactive).

Regarding `CC(C)c1ccc(NC(=O)C(N)=O)cc1`, the Kd is > 4 mM (inactive).

Consider `CCCCn1c(=O)cc(O)c2ccccc21`, for which the Kd is > 4 mM (inactive).

Take `Cn1c(=O)c2c(ncn2CCN)n(C)c1=O`: the Kd is > 4 mM (inactive). In the case of `COC(=O)[C@@H]1OC(=O)C2OC23[C@@]1(C)CCC1[C@]2(C)C(C[C@@H](O)[C@]13C)C(C)(C)[C@H](OC(C)=O)C[C@@H]2OC(C)=O` (stereo partly drawn), the Kd was > 4 mM (inactive). In the case of `O=C(c1ccc(F)cc1)N1CCN(c2ncccn2)CC1`, the Kd was > 4 mM (inactive). Turning to `NC(=O)NC1C=CS(=O)(=O)C1` (stereo not drawn), the Kd is > 4 mM (inactive).

For the molecule `Nc1ccc(-n2cccn2)cc1`, the Kd was > 4 mM (inactive). To `CCCCCC/C=C\CCCCCCCc1cccc(O)c1C(=O)O` belongs > 4 mM (inactive); to `C/C=C(/C)C(=O)O[C@@H]1Cc2c(ccc3ccc(=O)oc23)OC1(C)C`, > 4 mM (inactive); to `C[n+]1ccc(C(=O)[O-])cc1`, > 4 mM (inactive). Take `O=C(/C=C(\O)c1ccccc1)c1ccccc1O`: the Kd is > 4 mM (inactive). Then `Cc1nn2c(=O)c(NC(=O)c3ccccc3)cnc2s1`, with > 4 mM (inactive); and `CN1CCC(NC(=O)C2CCCO2)CC1` (stereo not drawn), with > 4 mM (inactive); and `Nc1cc(=O)[nH]c(SCC(=O)NC2CCCCC2)n1`, with > 4 mM (inactive).

Turning to `Cc1nc2ccccc2c(=O)[nH]1`, the Kd is > 4 mM (inactive). `O=C(O)CCCc1nc2ccccc2s1`: the Kd was > 4 mM (inactive). For the molecule `CCOc1cccc(C(=O)c2ccc(O)c(O)c2O)c1`, the Kd was > 4 mM (inactive).

In the case of `CCC(=O)NC(=S)Nc1ccc(C(N)=O)cc1`, the Kd was > 4 mM (inactive). As to `O=C(NN1C(=O)c2ccccc2C1=O)c1cccs1`, the Kd is > 4 mM (inactive). As to `CC(=O)CC(=O)N1C(O)CC[N+]1(C)C` (stereo not drawn), the Kd was > 4 mM (inactive). Regarding `CN1C(=O)c2ccc(C(=O)NCc3ccccc3)cc2C1=O`, the Kd was > 4 mM (inactive).

`OC1CC2CCC1C2` (stereo not drawn): the Kd was > 4 mM (inactive).

In the case of `Cc1ccc(N2C(=O)CC(Sc3ncn[nH]3)C2=O)cc1` (stereo not drawn), the Kd was > 4 mM (inactive).

In the case of `Cn1c(SCCC(=O)O)nnc1-c1cccnc1`, the Kd was > 4 mM (inactive). Turning to `Nc1ccc2c(c1)C(=O)OC2`, the Kd is > 4 mM (inactive). Take `COC(=O)c1noc(C)c1C(C)=O`: the Kd is > 4 mM (inactive). To `O=[N+]([O-])c1ccc(/C=N/c2ncn[nH]2)cc1` belongs > 4 mM (inactive); to `O=c1[nH]cc(Nc2ccccc2)c(=O)[nH]1`, > 4 mM (inactive); to `O=C1C2CCCCC2C(=O)N1c1ccc(O)cc1` (stereo not drawn), > 4 mM (inactive). Then `NC(=O)c1ccc(N2CCCCC2)c(N)c1`, with > 4 mM (inactive). On to `O=C1C=C(Nc2ccc(O)cc2)c2ccccc2C1=O`, for which the Kd is > 4 mM (inactive). For the molecule `Nc1ncnc2c1ncn2C1C[C@H](O)[C@@H](CO)O1` (stereo partly drawn), the Kd is > 4 mM (inactive). To `CP(C)(=O)c1cccc(C(=O)O)c1` belongs > 4 mM (inactive); to `Cc1nc(NC(=O)c2cccnc2)ccc1Br`, > 4 mM (inactive); to `O=C(Nc1cccnc1)c1cnn2cccnc12`, > 4 mM (inactive). To `CNC(=O)n1ccc(C(=O)N2CCCCC2)n1` belongs > 4 mM (inactive). In the case of `COc1ccc2ccc(=O)oc2c1`, the Kd is > 4 mM (inactive).

`CC1(C)C2CC(=O)[C@]3(C)C(CC[C@@]4(C)[C@H](c5ccoc5)OC(=O)[C@H]5O[C@]543)[C@@]2(C)C(=O)C[C@H]1O` (stereo partly drawn): the Kd is > 4 mM (inactive). As to `Cc1nc(SCC#N)c2c(C)c(C)sc2n1`, the Kd is > 4 mM (inactive). To `CCn1c2ccccc2c2nn(C)c(=N)nc21` belongs > 4 mM (inactive); to `Nc1ncnc2c1ncn2C1O[C@H](COP(=O)(O)O)[C@@H](O)[C@H]1O` (stereo partly drawn), > 4 mM (inactive). Regarding `NC12CC3CC(C1)CC(C(=O)O)(C3)C2`, the Kd is > 4 mM (inactive). On to `NC(=O)c1ccc(N=Cc2ccc[nH]2)cc1`, for which the Kd was > 4 mM (inactive). With `COc1nc(N2CCOCC2)nc(N)c1[N+](=O)[O-]`, the Kd is > 4 mM (inactive).

On to `NCc1ccc(-c2ccccn2)s1`, for which the Kd is > 4 mM (inactive). For the molecule `c1ccc2c(c1)CN1CCCC1=N2`, the Kd is > 4 mM (inactive). In the case of `O=S1(=O)C=CC(Nc2ccccc2)C1` (stereo not drawn), the Kd was > 4 mM (inactive). In the case of `CCCCCCCCCCCC1=C(O)C(=O)C=C(O)C1=O`, the Kd is > 4 mM (inactive). Regarding `CCNS(=O)(=O)c1ccc(OC)c(C)c1`, the Kd is > 4 mM (inactive). In the case of `Cc1cc(C)n(/N=C\c2cccs2)c(=O)c1C(N)=O`, the Kd was > 4 mM (inactive). In the case of `Cc1cc(C)cc(OC(=O)N2CCOCC2)c1`, the Kd was > 4 mM (inactive). As for `Cc1nc2[nH]onc2c2nccc(=O)c12`, the Kd was > 4 mM (inactive). To `CCOC(=O)c1cc2ccccc2oc1=O` belongs > 4 mM (inactive). Consider `Nc1cccc2nonc12`, for which the Kd was > 4 mM (inactive). As to `CC1CN=C(Nc2ccccc2)S1` (stereo not drawn), the Kd is > 4 mM (inactive). `Nc1ncnc2c1ncn2[C@@H]1O[C@H](CO)[C@@H](O)[C@H]1O`: the Kd was > 4 mM (inactive). Then `NC(=O)c1ccc(N2C(=O)C=CC2=O)cc1Cl`, with > 4 mM (inactive); and `O=C(Nc1nncs1)c1c(F)cccc1F`, with > 4 mM (inactive). Turning to `CCCSc1nnc2[nH]c(=O)cc(N)n12`, the Kd is > 4 mM (inactive). As to `CC(=O)c1csc(-c2cc(C)on2)n1`, the Kd was > 4 mM (inactive).

For the molecule `Nc1c(F)c(F)nc(F)c1F`, the Kd is > 4 mM (inactive). Take `Cc1c(N=Cc2ccc[nH]2)c(=O)n(-c2ccccc2)n1C`: the Kd is > 4 mM (inactive). To `NS(=O)(=O)c1ccc(NC(=O)/C=C\C(=O)O)cc1` belongs > 4 mM (inactive). Take `COc1cccc(N2CCN(C(=O)c3cccnc3)CC2)c1`: the Kd was > 4 mM (inactive). To `Oc1ccc2nonc2c1` belongs > 4 mM (inactive); to `CCn1nccc1C(=O)Nc1ccc(Cl)cc1Cl`, > 4 mM (inactive).

For the molecule `NC12CC3CC(C1)CC(CC(=O)O)(C3)C2`, the Kd was > 4 mM (inactive).

Turning to `C[C@@H]1OC(O[C@H]2C(O[C@H]3CC[C@@]4(C)C(CC[C@]5(C)C4CC=C4C6CC(C)(C)CC[C@]6(C(=O)O)CC[C@]45C)[C@]3(C)CO)OC[C@H](O)[C@@H]2O)[C@H](O)[C@H](O)[C@H]1O` (stereo partly drawn), the Kd was > 4 mM (inactive).

Turning to `COc1c2c(cc3c1OCO3)C13C=C[C@H](OC)CC1N(C2)CC3O` (stereo partly drawn), the Kd was > 4 mM (inactive). Then `CCCCCC1C(=O)CCC1CC(=O)OC` (stereo not drawn), with > 4 mM (inactive). To `Cc1ccc(/C=N/n2c(C)nnc2C)cc1` belongs > 4 mM (inactive); to `NCc1ccc(-c2cccs2)s1`, > 4 mM (inactive); to `O=C(O)c1ccc(Nc2nncc(=O)[nH]2)cc1`, > 4 mM (inactive). In the case of `NCCC(=O)N[C@@H](Cc1cnc[nH]1)C(=O)O`, the Kd is > 4 mM (inactive). To `C=C[C@@](C)(O)CCC1C(=C)C[C@H](O)C2C(C)(C)CCCC12C` (stereo partly drawn) belongs > 4 mM (inactive). Regarding `NCc1cn2ccccc2n1`, the Kd is > 4 mM (inactive). Then `Cc1ccn(S(=O)(=O)c2ccc(C(C)(C)C)cc2)n1`, with > 4 mM (inactive); and `CC(NC(=O)c1cccnc1)c1ccc2c(c1)OCO2` (stereo not drawn), with > 4 mM (inactive); and `CC(=O)Nc1ccc(S(=O)(=O)NCC2CCCO2)cc1` (stereo not drawn), with > 4 mM (inactive). Take `c1coc(CNc2nc(-c3ccncc3)cs2)c1`: the Kd was > 4 mM (inactive).

As to `COc1cccc(OC)c1C(=O)N1CCOCC1`, the Kd is > 4 mM (inactive). As to `Cc1cc2nc3c(=O)[nH]c(=O)nc-3n(CC(O)C(O)C(O)CO)c2cc1C` (stereo not drawn), the Kd was > 4 mM (inactive). On to `NC(=O)/C=C/C(=O)Nc1ccccc1`, for which the Kd was > 4 mM (inactive).

In general, Kd refers to the free concentration of one partner at which half of the binding sites on the other are occupied at equilibrium, for simple one-to-one binding.
